Measured values from ChEMBL document CHEMBL1124351, “Syntheses and bioevaluation of substituted dihydropyridines for pregnancy-interceptive activity in hamsters” (1989).

Experiments:
[1] = target: T1, Progesterone receptor (Oryctolagus cuniculus) (UniProt P06186); assay: Percent inhibition of [3H]- progesterone binding to rabbit uterine progesterone receptor, at 10e-8 M compound concentration; conditions: at 0.01 µM
T1 sequence (whole entry): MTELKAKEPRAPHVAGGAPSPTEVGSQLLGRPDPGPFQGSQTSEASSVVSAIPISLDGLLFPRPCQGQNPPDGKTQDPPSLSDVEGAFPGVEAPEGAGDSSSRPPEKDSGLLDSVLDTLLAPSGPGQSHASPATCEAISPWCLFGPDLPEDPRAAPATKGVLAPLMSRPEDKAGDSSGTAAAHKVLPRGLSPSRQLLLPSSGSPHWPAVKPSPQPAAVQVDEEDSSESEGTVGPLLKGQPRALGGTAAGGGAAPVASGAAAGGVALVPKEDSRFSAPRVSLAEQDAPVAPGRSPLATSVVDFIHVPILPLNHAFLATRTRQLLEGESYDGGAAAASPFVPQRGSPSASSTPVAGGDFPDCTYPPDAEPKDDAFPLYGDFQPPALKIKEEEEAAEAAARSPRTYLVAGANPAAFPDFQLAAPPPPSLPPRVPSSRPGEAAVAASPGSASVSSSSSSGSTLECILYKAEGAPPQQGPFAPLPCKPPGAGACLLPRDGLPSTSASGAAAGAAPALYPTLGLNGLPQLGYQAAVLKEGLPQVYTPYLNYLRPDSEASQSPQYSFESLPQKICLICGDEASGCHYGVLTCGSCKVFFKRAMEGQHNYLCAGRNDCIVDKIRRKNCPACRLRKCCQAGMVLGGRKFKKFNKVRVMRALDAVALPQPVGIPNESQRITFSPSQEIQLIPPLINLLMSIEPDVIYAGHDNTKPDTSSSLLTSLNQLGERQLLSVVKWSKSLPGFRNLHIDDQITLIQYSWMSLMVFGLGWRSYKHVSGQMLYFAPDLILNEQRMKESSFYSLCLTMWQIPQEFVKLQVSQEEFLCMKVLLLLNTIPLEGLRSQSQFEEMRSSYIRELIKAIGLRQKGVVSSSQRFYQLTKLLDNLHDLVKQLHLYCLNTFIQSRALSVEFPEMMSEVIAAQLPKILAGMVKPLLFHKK

[2] = system: Progesterone receptor (Mesocricetus auratus); assay: Percent inhibition of [3H]- progesterone binding to Syrian golden hamster uterine cytosol progesterone receptor, at 10e-6 M compound concentration; conditions: at 1 µM
[3] = target: T1, Progesterone receptor (Oryctolagus cuniculus); assay: Percent inhibition of [3H]- progesterone binding to rabbit uterine progesterone receptor, at 10e-6 M compound concentration; conditions: at 1 µM
[4] = target: T1, Progesterone receptor (Oryctolagus cuniculus); assay: Percent inhibition of [3H]- progesterone binding to rabbit uterine progesterone receptor, at 10e-7 M compound concentration; conditions: at 0.1 µM
[5] = system: Cricetinae gen. sp.; assay: Activity against pregnancy-interceptive activity in Syrian golden hamsters, when administered, at a dose of 8.40 mmol/kg; format: functional, Cricetulus griseus
[6] = system: Progesterone receptor (Mesocricetus auratus); assay: Percent inhibition of [3H]- progesterone binding to Syrian golden hamster uterine cytosol progesterone receptor, at 10e-5 M compound concentration; conditions: at 10 µM
[7] = target: T1, Progesterone receptor (Oryctolagus cuniculus); assay: Percent inhibition of [3H]- progesterone binding to rabbit uterine progesterone receptor, at 10e-9 M compound concentration; conditions: at 0.001 µM
[8] = target: T1, Progesterone receptor (Oryctolagus cuniculus); assay: Percent inhibition of [3H]- progesterone binding to rabbit uterine progesterone receptor, at 10e-5 M compound concentration; conditions: at 10 µM
[9] = system: Progesterone receptor (Mesocricetus auratus); assay: Percent inhibition of [3H]- progesterone binding to Syrian golden hamster uterine cytosol progesterone receptor, at 10e-7 M compound concentration; conditions: at 0.1 µM
[10] = system: Progesterone receptor (Mesocricetus auratus); assay: Percent inhibition of [3H]- progesterone binding to Syrian golden hamster uterine cytosol progesterone receptor, at 10e-8 M compound concentration; conditions: at 0.01 µM
[11] = system: Progesterone receptor (Mesocricetus auratus); assay: Percent inhibition of [3H]- progesterone binding to Syrian golden hamster uterine cytosol progesterone receptor, at 10e-9 M compound concentration; conditions: at 0.001 µM
[12] = system: Cricetinae gen. sp.; assay: Activity against pregnancy-interceptive activity in Syrian golden hamsters, when administered, at a dose of 26.88 mmol/kg; format: functional
[13] = system: Cricetinae gen. sp.; assay: Activity against pregnancy-interceptive activity in Syrian golden hamsters, when administered, at a dose of 7.97 mmol/kg; format: functional, Cricetulus griseus
[14] = system: Cricetinae gen. sp.; assay: Activity against pregnancy-interceptive activity in Syrian golden hamsters, when administered, at a dose of 9.31 mmol/kg; format: functional
[15] = system: Cricetinae gen. sp.; assay: Activity against pregnancy-interceptive activity in Syrian golden hamsters, when administered, at a dose of 9.54 mmol/kg; format: functional
[16] = system: Cricetinae gen. sp.; assay: Activity against pregnancy-interceptive activity in Syrian golden hamsters, when administered, at a dose of 13.85 mmol/kg; format: functional

Structure (SMILES) | inhibition [1] [%] | inhibition [2] [%] | inhibition [3] [%] | inhibition [4] [%] | Activity [5] | inhibition [6] [%] | inhibition [7] [%] | inhibition [8] [%] | inhibition [9] [%] | inhibition [10] [%] | inhibition [11] [%] | Activity [12] [mean] | Activity [13] | Activity [14] | Activity [15] | Activity [16]
COC(=O)C1=C(C)N=C(C)/C(=C(/O)OC)C1c1ccc2nc(-c3ccc4c(c3)OCO4)n(Cc3ccc4c(c3)OCO4)c2c1 (stereo unspecified) | 0 | 15 | 12 | 5 | 4.4 | 16 | 0 | 18 | 8 | 5 | 0 |  |  |  |  | 
COC(=O)Nc1nc2cc(C3C(C(=O)OC)=C(C)N=C(C)/C3=C(/O)OC)ccc2n1Cc1ccccc1 (stereo unspecified) |  |  |  |  |  |  |  |  |  |  |  | 3.58 |  |  |  | 
COC(=O)C1=C(C)N=C(C)/C(=C(/O)OC)C1c1ccc2nc(-c3ccc(OC)c(OC)c3)n(Cc3ccc(OC)c(OC)c3)c2c1 (stereo unspecified) | 0 | 10 | 10 | 8 |  | 16 | 0 | 8 | 5 | 5 | 2 |  | 4 |  |  | 
COC(=O)C1=C(C)N=C(C)/C(=C(\O)OC)C1c1cc2cc(-c3c(C)oc(C)c3C(=O)OC)ccc2nc1Cl (stereo unspecified) | 0 | 20 | 10 | 5 |  | 17 | 0 | 8 | 9 | 10 | 5 |  |  | 1.8 |  | 
COC(=O)C1=C(C)N=C(C)/C(=C(/O)OC)C1c1ccc(C2C(C(=O)OC)=C(C)N=C(C)/C2=C(/O)OC)cc1 (stereo unspecified) | 10 | 31 | 26 | 16 |  | 34 | 4 | 36 | 15 | 13 | 9 |  |  |  | 6.2 | 
COC(=O)C1=C(C)N=C(C)/C(=C(\O)OC)C1c1ccc(N)c([N+](=O)[O-])c1 (stereo unspecified) | 0 | 5 | 1 | 0 |  | 10 | 0 | 5 | 5 | 0 | 0 |  |  |  |  | 7
